The text below walks through data of patent US9758529B2, “Fused dihydro-4H-pyrazolo[5,1-C][1,4]oxazinyl compounds and analogs for treating CNS disorders” (Sunovion Pharmaceuticals Inc., priority 2015, dated 2017).

In this assay the test system is mice. The experiment in a line: Neuropharmacological Assay (SmartCube). It counts as in vivo. The conditions noted are these: i.p. 15 min before behavioral test; 3 doses, most efficacious dose(s) presented.

The structures appear in SMILES notation.

`CC(C)N(C)CC1OCCn2nc3ccccc3c21.Cl` (centres unmarked) [Compound 27, N-((3,4-dihydro-1H-[1,4]oxazino[4,3-b]indazol-1-yl)methyl)-N-methylpropan-2-aminium chloride]: the “AD: ADHD (probability of class match)” value was “+ (LOQ≦ + <5%)”, the “AG: analgesic (probability of class match)” value (shortened to “AG: analgesic”) is given as “++ (5%≦ ++ <25%)”, the “AX: anxiolytic (probability of class match)” value (shortened to “AX: anxiolytic”) is reported as “+ (LOQ≦ + <5%)” and the “CE: cognitive enhancer (probability of class match)” value (“CE: cognitive enhancer” below) was “+ (LOQ≦ + <5%)”. For the same compound, the “DP: anti-depressant (probability of class match)” value (from here on “DP: anti-depressant”) is on record as “++++ (50%≦ ++++)”, the “HA: hallucinogen (probability of class match)” value (“HA: hallucinogen” below) is recorded as “+ (LOQ≦ + <5%)”, the “MS: mood stabilizer (probability of class match)” value (“MS: mood stabilizer” below) was “+ (LOQ≦ + <5%)” and the “PS: anti-psychotic (probability of class match)” value (shortened to “PS: anti-psychotic”) is “+ (LOQ≦ + <5%)”. Moreover, the “SD: sedative hypnotic (probability of class match)” value (“SD: sedative hypnotic” below) is “+ (LOQ≦ + <5%)”, the “UN: uncharacterized CNS activity (probability of class match)” value (“UN: uncharacterized CNS activity” for short) is “+ (LOQ≦ + <5%)” and the “XG: anxiogenic (probability of class match)” value (“XG: anxiogenic” for short) is reported as “+ (LOQ≦ + <5%)”.

With `CCN(C)CC1OCCn2nc3ccccc3c21.Cl` (centres unmarked) [Compound 28, N-((3,4-dihydro-1H-[1,4]oxazino[4,3-b]indazol-1-yl)methyl)-N-methylethanaminium chloride], the “AD: ADHD (probability of class match)” value was “+ (LOQ≦ + <5%)”, the “AG: analgesic” value was “+ (LOQ≦ + <5%)”, the “AX: anxiolytic” value is “++ (5%≦ ++ <25%)” and the “CE: cognitive enhancer” value is reported as “++ (5%≦ ++ <25%)”. Besides, the “DP: anti-depressant” value was “++++ (50%≦ ++++)”, the “HA: hallucinogen” value is recorded as “++ (5%≦ ++ <25%)”, the “MS: mood stabilizer” value is listed as “+ (LOQ≦ + <5%)” and the “PS: anti-psychotic” value is “+ (LOQ≦ + <5%)”. For the same compound, the “SD: sedative hypnotic” value is on record as “+ (LOQ≦ + <5%)”, the “UN: uncharacterized CNS activity” value is “++ (5%≦ ++ <25%)” and the “XG: anxiogenic” value is “+ (LOQ≦ + <5%)”.

Turning to `CN(CC1OCCn2nc3ccccc3c21)C1CCC1.Cl` (centres unmarked) [Compound 29, N-((3,4-dihydro-1H-[1,4]oxazino[4,3-b]indazol-1-yl)methyl)-N-methylcyclobutanaminium chloride], the “AD: ADHD (probability of class match)” value was “+ (LOQ≦ + <5%)”, the “AG: analgesic” value is listed as “+ (LOQ≦ + <5%)”, the “AX: anxiolytic” value is reported as “++ (5%≦ ++ <25%)” and the “CE: cognitive enhancer” value was “++ (5%≦ ++ <25%)”. For the same compound, the “DP: anti-depressant” value is on record as “+++ (25%≦ +++ <50%)”, the “HA: hallucinogen” value is recorded as “++ (5%≦ ++ <25%)”, the “MS: mood stabilizer” value is recorded as “+ (LOQ≦ + <5%)” and the “PS: anti-psychotic” value is “+ (LOQ≦ + <5%)”. Also, the “SD: sedative hypnotic” value is “+ (LOQ≦ + <5%)”, the “UN: uncharacterized CNS activity” value is “+ (LOQ≦ + <5%)” and the “XG: anxiogenic” value is reported as “+ (LOQ≦ + <5%)”.

For `c1ccc2c3n(nc2c1)CCOC3C1CCNCC1` (centres unmarked) [Compound 35, 4-(3,4-dihydro-1H-[1,4]oxazino[4,3-b]indazol-1-yl)piperidin-1-ium chloride], the “AD: ADHD (probability of class match)” value is given as “+ (LOQ≦ + <5%)”, the “AG: analgesic” value is reported as “+ (LOQ≦ + <5%)”, the “AX: anxiolytic” value is “+ (LOQ≦ + <5%)” and the “CE: cognitive enhancer” value is listed as “+ (LOQ≦ + <5%)”. The “DP: anti-depressant” value is recorded as “+ (LOQ≦ + <5%)”, the “HA: hallucinogen” value is recorded as “+ (LOQ≦ + <5%)”, the “MS: mood stabilizer” value is “+ (LOQ≦ + <5%)” and the “PS: anti-psychotic” value is given as “+ (LOQ≦ + <5%)”. Moreover, the “SD: sedative hypnotic” value was “+ (LOQ≦ + <5%)”, the “UN: uncharacterized CNS activity” value was “+ (LOQ≦ + <5%)” and the “XG: anxiogenic” value is recorded as “+ (LOQ≦ + <5%)”.

Take `c1ccc2c3n(nc2c1)CCOC31CCNCC1` [Compound 36, 3′,4′-dihydrospiro[piperidine-4,1′-[1,4]oxazino[4,3-b]indazol]-1-ium chloride]: the “AD: ADHD (probability of class match)” value is listed as “+ (LOQ≦ + <5%)”, the “AG: analgesic” value is listed as “++ (5%≦ ++ <25%)”, the “AX: anxiolytic” value is on record as “++ (5%≦ ++ <25%)” and the “CE: cognitive enhancer” value is recorded as “++ (5%≦ ++ <25%)”. Moreover, the “DP: anti-depressant” value is on record as “+++ (25%≦ +++ <50%)”, the “HA: hallucinogen” value is listed as “+ (LOQ≦ + <5%)”, the “MS: mood stabilizer” value was “+ (LOQ≦ + <5%)” and the “PS: anti-psychotic” value is reported as “++ (5%≦ ++ <25%)”. Also, the “SD: sedative hypnotic” value is listed as “++ (5%≦ ++ <25%)”, the “UN: uncharacterized CNS activity” value was “++ (5%≦ ++ <25%)” and the “XG: anxiogenic” value is “+ (LOQ≦ + <5%)”.

`Cl.c1ccc2c3n(nc2c1)CCOC31CN2CCC1C2` (centres unmarked) [Compound 37, 3′,4′-dihydro-4-azaspiro[bicyclo[2.2.1]heptane-2,1′-[1,4]oxazino[4,3-b]indazol]-4-ium chloride]: the “AD: ADHD (probability of class match)” value was “+ (LOQ≦ + <5%)”, the “AG: analgesic” value was “++ (5%≦ ++ <25%)”, the “AX: anxiolytic” value is “++ (5%≦ ++ <25%)” and the “CE: cognitive enhancer” value was “++ (5%≦ ++ <25%)”. Also, the “DP: anti-depressant” value is “++ (5%≦ ++ <25%)”, the “HA: hallucinogen” value is given as “+ (LOQ≦ + <5%)”, the “MS: mood stabilizer” value is reported as “+ (LOQ≦ + <5%)” and the “PS: anti-psychotic” value is on record as “++ (5%≦ ++ <25%)”. For the same compound, the “SD: sedative hypnotic” value was “++ (5%≦ ++ <25%)”, the “UN: uncharacterized CNS activity” value is “+++ (25%≦ +++ <50%)” and the “XG: anxiogenic” value is “+ (LOQ≦ + <5%)”.

As for `Cl.c1ccc2c3n(nc2c1)CCOC3[C@H]1CCCNC1` (stereo partly drawn) [Compound 38, (3S)-3-(3,4-dihydro-1H-[1,4]oxazino[4,3-b]indazol-1-yl)piperidin-1-ium], the “AD: ADHD (probability of class match)” value is listed as “+ (LOQ≦ + <5%)”, the “AG: analgesic” value is “++ (5%≦ ++ <25%)”, the “AX: anxiolytic” value is on record as “++ (5%≦ ++ <25%)” and the “CE: cognitive enhancer” value is on record as “+ (LOQ≦ + <5%)”. In addition, the “DP: anti-depressant” value is given as “+ (LOQ≦ + <5%)”, the “HA: hallucinogen” value was “+ (LOQ≦ + <5%)”, the “MS: mood stabilizer” value was “++ (5%≦ ++ <25%)” and the “PS: anti-psychotic” value is recorded as “++ (5%≦ ++ <25%)”. Moreover, the “SD: sedative hypnotic” value is on record as “+ (LOQ≦ + <5%)”, the “UN: uncharacterized CNS activity” value is recorded as “+ (LOQ≦ + <5%)” and the “XG: anxiogenic” value is given as “+ (LOQ≦ + <5%)”.

`CC1(CN)OCCn2nc3ccccc3c21.Cl` (centres unmarked) [Compound 39, (1-methyl-3,4-dihydro-1H-[1,4]oxazino[4,3-b]indazol-1-yl)methanaminium chloride]: the “AD: ADHD (probability of class match)” value is “+ (LOQ≦ + <5%)”, the “AG: analgesic” value is reported as “+ (LOQ≦ + <5%)”, the “AX: anxiolytic” value was “++ (5%≦ ++ <25%)” and the “CE: cognitive enhancer” value was “+ (LOQ≦ + <5%)”. The “DP: anti-depressant” value is reported as “++ (5%≦ ++ <25%)”, the “HA: hallucinogen” value is reported as “+ (LOQ≦ + <5%)”, the “MS: mood stabilizer” value is given as “+ (LOQ≦ + <5%)” and the “PS: anti-psychotic” value is on record as “+ (LOQ≦ + <5%)”. For the same compound, the “SD: sedative hypnotic” value was “+ (LOQ≦ + <5%)”, the “UN: uncharacterized CNS activity” value is recorded as “+ (LOQ≦ + <5%)” and the “XG: anxiogenic” value is “+ (LOQ≦ + <5%)”.

For the compound `c1ccc2c3n(nc2c1)CCOC31CNC1` [Compound 40, 3′,4′-dihydrospiro[azetidine-3,1′-[1,4]oxazino[4,3-b]indazol]-1-ium chloride], the “AD: ADHD (probability of class match)” value was “+ (LOQ≦ + <5%)”, the “AG: analgesic” value is “++ (5%≦ ++ <25%)”, the “AX: anxiolytic” value is “+++ (25%≦ +++ <50%)” and the “CE: cognitive enhancer” value is given as “++ (5%≦ ++ <25%)”. Besides, the “DP: anti-depressant” value is “++ (5%≦ ++ <25%)”, the “HA: hallucinogen” value is reported as “+ (LOQ≦ + <5%)”, the “MS: mood stabilizer” value is given as “+ (LOQ≦ + <5%)” and the “PS: anti-psychotic” value is on record as “++ (5%≦ ++ <25%)”. Further, the “SD: sedative hypnotic” value is listed as “++ (5%≦ ++ <25%)”, the “UN: uncharacterized CNS activity” value was “+ (LOQ≦ + <5%)” and the “XG: anxiogenic” value is on record as “+ (LOQ≦ + <5%)”.

As to `Cl.N[C@H](CC1CCC1)C1OCCn2nc3ccccc3c21` (stereo partly drawn) [Compound 41, (1R)-2-cyclobutyl-1-(3,4-dihydro-1H-[1,4]oxazino[4,3-b]indazol-1-yl)ethan-1-aminium], the “AD: ADHD (probability of class match)” value is reported as “+ (LOQ≦ + <5%)”, the “AG: analgesic” value is given as “+ (LOQ≦ + <5%)”, the “AX: anxiolytic” value was “+ (LOQ≦ + <5%)” and the “CE: cognitive enhancer” value is “+ (LOQ≦ + <5%)”. Further, the “DP: anti-depressant” value is recorded as “+ (LOQ≦ + <5%)”, the “HA: hallucinogen” value is listed as “+ (LOQ≦ + <5%)”, the “MS: mood stabilizer” value is recorded as “+ (LOQ≦ + <5%)” and the “PS: anti-psychotic” value is given as “+ (LOQ≦ + <5%)”. In addition, the “SD: sedative hypnotic” value is given as “+ (LOQ≦ + <5%)”, the “UN: uncharacterized CNS activity” value is recorded as “+ (LOQ≦ + <5%)” and the “XG: anxiogenic” value is reported as “+ (LOQ≦ + <5%)”.
